Measured values taken from publication PMC7007292 (Oncotarget, 2020).
“Also recorded” adds a separate entry of the source. Read-outs that look alike come from different tables or passages of the source.

Experiments:
[1] = test system: peritoneal metastasis of GC; conditions: xenograft mouse model; oral and intraperitoneal administration; cited from earlier work
AGP-01 cells [2] = assay: Cell invasion assay (ECM coated inserts); format: cell-based, human; conditions: 100 nM, 500 nM, 1 μM, 24 h, legend 8 h
Description: Cell migration assays were performed using an IncuCyte® life-cell analysis system (Essen Bioscience, USA). […] Images were captured every 2 h for 48 h and evaluated using the InCucyte® software where the wound width was calculated and expressed as percent relative to the control (0.1% DMSO). Cell invasion was assessed by using the cell invasion assay. A 24-well tissue culture plate (Corning) with cell culture inserts which contained an 8 μm pore size polycarbonate membrane was used. […] After 8 h incubation, cells were removed from the inner surface of the insert using a cotton-tipped swab. […] The number of migrating cells per insert was captured by the Operetta System (Perkin Elmer) and counted automatically.

[3] = test system: GC cell lines (AGP-01, ACP-02, ACP-03); assay: Growth inhibition assay, all GC cell lines; format: cell-based, human
Description: All cell lines were cultured in Dulbecco’s Modified Eagle Medium, high Glucose (4.5 g/L), with Sodium Pyruvate and L-glutamin] (DMEM, Lonza, UK), containing 10% foetal bovine serum (FBS) (Invitrogen, USA), 1% antibiotic with 100 IU/ml Penicillin and 100 ug/ml Streptomycin (Invitrogen, USA). The culture medium was changed 2 to 3 times a week and cells were passaged using trypsin/EDTA (Invitrogen, USA).
Resarzurin was used for growth inhibition assays. Briefly, cells (300/well) were plated in 384-well flat-bottomed plates and cultured for 24 h. […] All the following in vitro experiments were performed on metastatic AGP-01 cells.

ACP-02 cells = assay: Growth inhibition assay (resazurin); format: cell-based, human; conditions: 2D culture, 72 h, value (± SD)
kinase targets = conditions: cited from earlier work
AGP-01 cells [4] = assay: Microfilament analysis (cortical actin, confocal); format: cell-based, human
Description: Between each step described above, cells were washed three times with PBS for 5 min at 37°C. […] Images were capture by a laser confocal microscope at 40× (Zeiss, Germany). Image analysis of actin fibers was performed using Acapella (Perkin Elmer). Nuclei were automatically segmented using DAPI channel. Cells were segmented using both DAPI and Actin channels. Dense actin was defined by thresholding to find pixels that were much brighter than their surrounding in the membrane region. The area of dense actin in the membrane region was calculated and normalized to the cell area. Similarly the actin intensity in the membrane region was measured and normalized to the cell area.

AGP-01 cells [5] = assay: Growth inhibition assay (resazurin); conditions: 2D culture, 72 h, value (± SD)
kinases = conditions: beside BCR-ABL and SRC; cited from earlier work
AGP-01 cells [6] = assay: Morphological analysis; format: cell-based, human; conditions: 100 nM, 500 nM, 1 μM, 24 h
ACP-03 cells = assay: Growth inhibition assay (resazurin); format: cell-based, human; conditions: 2D culture, 72 h, value (± SD)
GC patients = conditions: cited from earlier work; for beneficial effects in clinical trials: NCT00215995, NCT00595985, NCT00725712

| Molecule | IC50 (ACP-02 cells; Homo sapiens) | IC50 (AGP-01 cells [5]) | IC50 (ACP-03 cells; Homo sapiens) | further results |
| --- | --- | --- | --- | --- |
| Cc1nc(Nc2ncc(C(=O)Nc3c(C)cccc3Cl)s2)cc(N2CCN(CCO)CC2)n1 [Dasatinib] | 1.02 µM | 0.35 µM |  | peritoneal metastasis of GC [1]: suppressing peritoneal metastasis of GC; cell invasion (AGP-01 cells [2]): significantly inhibited; also recorded: Inhibition of cell invasion and migration; IC50 ([3]; 72 h incubation): 1 µM; number of targets identified (kinase targets): 72; cortical actin in the membrane region (AGP-01 cells [4]; confocal imaging, 100 nM, 500 nM, 1 μM, 24 h): significant increase; area of cortical actin (AGP-01 cells [4]; single cells, p-value < 0.01): significantly higher; intensity of cortical actin (AGP-01 cells [4]; single cells, p-value < 0.01): significantly higher; number of additional kinases identified as targets (kinases): ~40; morphology of the cells (AGP-01 cells [6]): morphological changes |
| CO[C@H]1C[C@@H]2CC[C@@H](C)[C@@](O)(O2)C(=O)C(=O)N2CCCC[C@H]2C(=O)O[C@H]([C@H](C)C[C@@H]2CC[C@@H](OCCO)[C@H](OC)C2)CC(=O)[C@H](C)/C=C(\C)[C@@H](O)[C@@H](OC)C(=O)[C@H](C)C[C@H](C)/C=C/C=C/C=C/1C [Everolimus] | > 20 µM | > 20 µM | > 20 µM |  |
| COc1cc2c(Oc3ccc(NC(=O)C4(C(=O)Nc5ccc(F)cc5)CC4)cc3F)ccnc2cc1OCCCN1CCOCC1 [GSK1363089] |  |  |  | beneficial effects in clinical trials (GC patients): failed to show beneficial effects |
| C=CCN(/C=C1/C(=O)O[C@H](COC)[C@@]2(C)C1=C(O)C(=O)C1=C2[C@H](OC(C)=O)C[C@]2(C)C(=O)CC[C@@H]12)CC=C [PX-866] |  | > 20 µM |  | IC50 (ACP-02 cells): > 20 µM; IC50 (ACP-03 cells): > 20 µM |
| Cc1ccc(Nc2nccc(N(C)c3ccc4c(C)n(C)nc4c3)n2)cc1S(N)(=O)=O [Pazopanib] | > 20 µM | > 20 µM | > 20 µM |  |
| CC[C@@H]1/C=C(\C)C[C@H](C)C[C@H](OC)[C@H]2O[C@@](O)(C(=O)C(=O)N3CCCC[C@H]3C(=O)O[C@H](/C(C)=C/[C@@H]3CC[C@H](Cl)[C@H](OC)C3)[C@H](C)[C@@H](O)CC1=O)[C@H](C)C[C@@H]2OC [Pimecrolimus] | > 20 µM | > 20 µM | > 20 µM |  |
| N#CC[C@H](C1CCCC1)n1cc(-c2ncnc3[nH]ccc23)cn1 [Ruxolitinib] | > 20 µM | > 20 µM | > 20 µM |  |
| CN1CCN(CCOc2cc(OC3CCOCC3)c3c(Nc4c(Cl)ccc5c4OCO5)ncnc3c2)CC1 [Saracatinib] | 5.94 µM | 2.38 µM | 2.8 µM |  |
| CCN(CC)CCNC(=O)c1c(C)[nH]c(/C=C2\C(=O)Nc3ccc(F)cc32)c1C [Sunitinib] |  | 1.53 µM | 1.97 µM | beneficial effects in clinical trials (GC patients): failed to show beneficial effects |
| COc1cc2nccc(Oc3ccc(NC(=O)Nc4cc(C)on4)c(Cl)c3)c2cc1OC [Tivozanib] | > 20 µM | > 20 µM | > 20 µM |  |
| COc1cc2c(Nc3ccc(Br)cc3F)ncnc2cc1OCC1CCN(C)CC1 [Vandetanib] | > 20 µM | > 20 µM | > 20 µM |  |
| CCCS(=O)(=O)Nc1ccc(F)c(C(=O)c2c[nH]c3ncc(-c4ccc(Cl)cc4)cc23)c1F [Vemurafenib] | > 20 µM | > 20 µM | > 20 µM |  |
| N#CC1(c2ccc(NC(=O)c3cccnc3NCc3ccncc3)cc2)CCCC1 [apatinib] |  |  |  | median OS and progression free survival (GC patients; third line therapy for GC): significant benefit |
| Cc1ccc(NC(=O)c2ccc(CN3CCN(C)CC3)cc2)cc1Nc1nccc(-c2cccnc2)n1 [imatinib] |  |  |  | antiproliferative effect [3]: no proliferation inhibition was observed |
| CS(=O)(=O)CCNCc1ccc(-c2ccc3ncnc(Nc4ccc(OCc5cccc(F)c5)c(Cl)c4)c3c2)o1 [lapatinib] |  |  |  | beneficial effects in clinical trials (GC patients): failed to show beneficial effects |
| Cc1cn(-c2cc(NC(=O)c3ccc(C)c(Nc4nccc(-c5cccnc5)n4)c3)cc(C(F)(F)F)c2)cn1 [nilotinib] |  |  |  | antiproliferative effect ([3]; GC cell lines, 72 h incubation): no proliferation inhibition was observed |
| ramucirumab: VEGFR2 inhibitor approved as second line treatment of GC |  |  |  | median OS (GC patients; second line, alone or with paclitaxel, local relapsed or metastatic GC): improvement on median OS |
